Experiments:
Assay in all cases: In situ competitive SILAC profiling with A-DA probe in (PMA-stimulated) A549 cells
Conditions in all cases: A549 cells, A-DA probe
[1] = target: T1, A-DA lipid probe targets in A549 cells (Homo sapiens, UniProt P50402)
T1 sequence (P50402 1-254): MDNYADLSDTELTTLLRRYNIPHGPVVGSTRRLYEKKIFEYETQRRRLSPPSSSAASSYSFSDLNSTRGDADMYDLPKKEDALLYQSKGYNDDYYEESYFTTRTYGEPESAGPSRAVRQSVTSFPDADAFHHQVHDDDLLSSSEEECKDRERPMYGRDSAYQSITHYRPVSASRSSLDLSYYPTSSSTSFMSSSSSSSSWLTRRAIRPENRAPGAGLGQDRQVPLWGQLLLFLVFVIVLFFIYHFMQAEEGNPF

[2] = target: T2, A-DA lipid probe targets in A549 cells (Homo sapiens, UniProt O75911)
T2 sequence (O75911 1-302): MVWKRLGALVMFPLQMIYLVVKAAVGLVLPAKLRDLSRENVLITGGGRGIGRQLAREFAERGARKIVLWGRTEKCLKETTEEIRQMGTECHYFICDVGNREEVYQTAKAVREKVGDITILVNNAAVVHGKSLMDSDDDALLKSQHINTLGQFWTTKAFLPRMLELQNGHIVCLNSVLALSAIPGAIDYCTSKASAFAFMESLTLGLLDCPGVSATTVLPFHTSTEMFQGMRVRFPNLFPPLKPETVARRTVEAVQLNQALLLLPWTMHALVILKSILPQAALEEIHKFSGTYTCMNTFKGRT

[3] = target: T3, A-DA lipid probe targets in A549 cells (Homo sapiens, UniProt Q8IZV5)
T3 sequence (Q8IZV5 1-341): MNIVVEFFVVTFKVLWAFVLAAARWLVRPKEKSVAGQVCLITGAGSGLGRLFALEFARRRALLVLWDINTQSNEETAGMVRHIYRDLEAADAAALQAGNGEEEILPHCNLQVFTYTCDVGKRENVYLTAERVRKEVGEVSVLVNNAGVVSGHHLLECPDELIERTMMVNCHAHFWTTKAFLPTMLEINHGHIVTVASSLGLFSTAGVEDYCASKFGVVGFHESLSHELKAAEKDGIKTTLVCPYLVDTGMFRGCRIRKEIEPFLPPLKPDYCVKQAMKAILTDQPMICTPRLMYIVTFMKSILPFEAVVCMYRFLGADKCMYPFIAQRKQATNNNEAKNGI

[4] = target: T4, A-DA lipid probe targets in A549 cells (Homo sapiens, UniProt Q9NS69)
T4 sequence (Q9NS69 1-142): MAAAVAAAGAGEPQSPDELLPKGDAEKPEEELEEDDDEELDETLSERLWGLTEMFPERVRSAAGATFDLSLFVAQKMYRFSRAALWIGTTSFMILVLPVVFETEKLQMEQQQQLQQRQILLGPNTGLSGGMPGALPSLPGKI

[5] = target: T5, A-DA lipid probe targets in A549 cells (Homo sapiens, UniProt Q7Z2K6)
T5 sequence (Q7Z2K6 1-904): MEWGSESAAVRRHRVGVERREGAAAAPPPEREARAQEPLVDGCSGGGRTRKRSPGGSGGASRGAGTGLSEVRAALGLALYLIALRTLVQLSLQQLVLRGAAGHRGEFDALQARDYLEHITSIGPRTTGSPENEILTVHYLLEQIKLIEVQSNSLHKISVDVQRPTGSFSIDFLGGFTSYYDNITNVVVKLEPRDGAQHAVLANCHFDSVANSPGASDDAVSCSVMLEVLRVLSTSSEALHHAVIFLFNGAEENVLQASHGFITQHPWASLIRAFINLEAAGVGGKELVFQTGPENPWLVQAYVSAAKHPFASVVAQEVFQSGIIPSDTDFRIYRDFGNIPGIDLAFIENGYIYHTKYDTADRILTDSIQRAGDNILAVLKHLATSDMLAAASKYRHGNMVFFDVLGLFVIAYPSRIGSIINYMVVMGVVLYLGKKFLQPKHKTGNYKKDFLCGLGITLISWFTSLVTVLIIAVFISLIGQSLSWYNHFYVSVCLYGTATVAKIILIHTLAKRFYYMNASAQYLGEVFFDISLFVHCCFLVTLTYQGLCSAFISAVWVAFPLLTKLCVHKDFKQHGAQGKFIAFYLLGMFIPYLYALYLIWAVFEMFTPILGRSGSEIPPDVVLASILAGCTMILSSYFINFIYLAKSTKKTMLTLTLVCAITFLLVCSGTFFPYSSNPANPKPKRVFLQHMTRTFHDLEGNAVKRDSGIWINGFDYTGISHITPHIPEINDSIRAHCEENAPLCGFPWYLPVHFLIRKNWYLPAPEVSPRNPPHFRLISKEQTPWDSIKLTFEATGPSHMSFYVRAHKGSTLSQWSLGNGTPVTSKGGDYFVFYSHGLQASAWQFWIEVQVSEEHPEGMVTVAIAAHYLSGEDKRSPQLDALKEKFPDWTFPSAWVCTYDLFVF

[6] = target: T6, A-DA lipid probe targets in A549 cells (Homo sapiens, UniProt Q9HAW7)
T6 sequence (Q9HAW7 26-530): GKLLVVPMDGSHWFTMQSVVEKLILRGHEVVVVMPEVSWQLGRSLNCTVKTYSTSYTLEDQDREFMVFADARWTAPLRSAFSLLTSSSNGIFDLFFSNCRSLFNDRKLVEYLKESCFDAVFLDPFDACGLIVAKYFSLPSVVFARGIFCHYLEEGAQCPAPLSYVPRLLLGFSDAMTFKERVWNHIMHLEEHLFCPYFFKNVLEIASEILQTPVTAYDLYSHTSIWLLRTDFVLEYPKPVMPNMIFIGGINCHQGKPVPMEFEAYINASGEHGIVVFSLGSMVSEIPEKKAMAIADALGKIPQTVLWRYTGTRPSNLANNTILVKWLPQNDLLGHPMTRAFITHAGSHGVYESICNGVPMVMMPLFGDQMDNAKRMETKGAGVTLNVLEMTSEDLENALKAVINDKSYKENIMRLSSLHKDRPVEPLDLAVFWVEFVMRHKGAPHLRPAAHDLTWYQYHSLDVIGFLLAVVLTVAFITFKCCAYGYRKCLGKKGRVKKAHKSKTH

SMILES | SILAC ratio, EMD (O08579) ([1]; competitor 25 μM) | SILAC ratio, DHRS3 (O75911) ([2]; competitor 25 μM) | SILAC ratio, RDH10 (Q8IZV5) ([3]; competitor 25 μM) | SILAC ratio, TOMM22 (Q9CPQ3) ([4]; competitor 25 μM) | SILAC ratio, ERMP1 (Q7Z2K6) ([5]; competitor 25 μM) | SILAC ratio, UGT1A7 (Q9HAW7) ([6]; competitor 25 μM) | SILAC ratio, EMD (O08579) ([1]; competitor 5 μM) | SILAC ratio, EMD (O08579) ([1]; competitor 50 μM) | SILAC ratio, DHRS3 (O75911) ([2]; competitor 5 μM) | SILAC ratio, DHRS3 (O75911) ([2]; competitor 50 μM) | SILAC ratio, RDH10 (Q8IZV5) ([3]; competitor 5 μM) | SILAC ratio, RDH10 (Q8IZV5) ([3]; competitor 50 μM) | SILAC ratio, TOMM22 (Q9CPQ3) ([4]; competitor 5 μM) | SILAC ratio, TOMM22 (Q9CPQ3) ([4]; competitor 50 μM) | SILAC ratio, ERMP1 (Q7Z2K6) ([5]; competitor 5 μM) | SILAC ratio, ERMP1 (Q7Z2K6) ([5]; competitor 50 μM) | SILAC ratio, UGT1A7 (Q9HAW7) ([6]; competitor 5 μM) | SILAC ratio, UGT1A7 (Q9HAW7) ([6]; competitor 50 μM)
O=C(/C=C/c1cccnc1)NCCCCC1CCN(C(=O)c2ccccc2)CC1 [FK-866, reference compound] | 1.3 | 2.0 | 3.1 | 1.3 | 1.6 | 2.1 | – | – | – | – | – | – | – | – | – | – | – | –
C=CCN(C)CCCCCCOc1ccc(C(=O)c2ccc(Br)cc2)c(F)c1 [Ro488071] | – | – | – | – | – | – | 0.6 | 0.8 | 1.8 | 3.1 | 1.9 | 2.8 | 1.4 | 1.4 | 1.4 | 3.2 | 1.6 | 40.0
